Measurements taken from US9409924B2, “Selective glycosidase inhibitors and uses thereof” (Alectos Therapeutics Inc., priority 2011, dated 2016).

Experiments:
[1] = Assay for determination of apparent permeability (Papp), bi-directional transport; assay type: in vitro ADME; details: pig, LLC-PK1; 1 μM test compound, t=3 h, average of A to B and B to A; read-out: Papp LLC-PK1 cells
Method: Assay for Determination of Apparent Permeability (Papp)
Bi-directional transport was evaluated in LLC-PK1 cells in order to determine apparent permeability (Papp). LLC-PK1 cells can form a tight monolayer and therefore can be used to assess vectorial transport of compounds from basolateral to apical (B→A) and from apical to basolateral (A→B).
To determine Papp, LLC-PK1 cells were cultured in 96-well transwell culture plates (Millipore). Solutions containing the test compounds (1 μM) were prepared in Hank's Balanced Salt Solution with 10 mM HEPES. Substrate solution (150 μL) was added to either the apical (A) or the basolateral (B) compartment of the culture plate, and buffer (150 μL) was added to the compartment opposite to that containing the compound. At t=3 h, 50 μL samples were removed from both sides of monolayers dosed with test compound and placed in 96 well plates, scintillant (200 μL) or internal standard (100 μL labetolol 1 μM) was added to the samples and concentration was determined by liquid scintillation counting in a MicroBeta Wallac Trilux scintillation counter (Perkin Elmer Life Sciences, Boston, Mass.) or by LCMS/MS (Applied Biosystems SCIEX API 5000 triple quadruple mass spectrometer). [^3H]Verapamil (1 μM) was used as the positive control. The experiment was performed in triplicate.
[formula] Where: Volume of Receptor Chamber was 0.15 mL; Area of membrane was 0.11 cm^2; the Initial Concentration is the sum of the concentration measured in the donor plus concentration measured in receiver compartments at t=3 h; A in Concentration is concentration in the receiver compartment at 3 h; and Δ in Time is the incubation time (3×60×60=10800 s). Papp was expressed as 10^−6 cm/s.

human O-GlcNAcase = human O-GlcNAcase (Homo sapiens (Human), UniProt O60502); assay: Assay for determination of KI values for inhibition of O-GlcNAcase activity (fluorescence-based hOGA); assay type: biochemical; details: purified human O-GlcNAcase, 4-Methylumbelliferyl N-acetyl-β-D-glucosaminide substrate, pH 7.0, Cheng-Prusoff
Method: Assay for Determination of KI Values for Inhibition of O-GlcNAcase Activity
Experimental Procedure for Kinetic Analyses:
Enzymatic reactions were carried out in a reaction containing 50 mM NaH2PO4, 100 mM NaCl and 0.1% BSA (pH 7.0) using 2 mM 4-Methylumbelliferyl N-acetyl-β-D-glucosaminide dihydrate (Sigma M2133) dissolved in ddH2O, as a substrate. The amount of purified human O-GlcNAcase enzyme used in the reaction was 0.7 nM. Test compound of varying concentrations was added to the enzyme prior to initiation of the reaction. The reaction was performed at room temperature in a 96-well plate and was initiated with the addition of substrate. […] The slope of product production was determined for each concentration of compound tested and plotted, using standard curve fitting algorithms for sigmoidal dose response curves. The values for a four parameter logistic curve fit of the data were determined.

O-GlcNAcase = O-GlcNAcase (Rattus norvegicus (Rat), UniProt Q8VIJ5); assay: Cell-based ELISA of O-GlcNAcylated protein (RL-2 antibody) for cellular activity of O-GlcNAcase inhibitors; details: rat PC-12 cells, 24 h treatment, O-GlcNAcylated protein detected with RL-2 antibody
Source text: Assay for Determination of Cellular Activity for Compounds that Inhibit O-GlcNAcase Activity
Inhibition of O-GlcNAcase, which removes O-GlcNAc from cellular proteins, results in an increase in the level of O-GlcNAcylated protein in cells. An increase in O-GlcNAcylated protein can be measured by an antibody, such as RL-2, that binds to O-GlcNAcylated protein. The amount of O-GlcNAcylated protein:RL2 antibody interaction can be measured by enzyme linked immunosorbant assay (ELISA) procedures.
A variety of tissue culture cell lines, expressing endogenous levels of O-GlcNAcase, can be utilized; examples include rat PC-12, and human U-87, or SK—N—SH cells. […] Compounds to be tested were dissolved in DMSO, either 2 or 10 mM stock solution, and then diluted with DMSO and water in a two-step process using a Tecan workstation. […] To prepare a cell lysate, the media from compound treated cells was removed, the cells were washed once with phosphate buffered saline (PBS) and then lysed for 5 minutes at room temperature in 50 μL of Phosphosafe reagent (Novagen Inc, Madison, Wis.) with protease inhibitors and PMSF. The cell lysate was collected and transferred to a new plate, which was then either coated to assay plates directly or frozen −80° C. until used in the ELISA procedure. If desired, the total protein concentration of samples was determined using 20 μL of the sample using the BCA method.
The ELISA portion of the assay was performed in a black Maxisorp 96-well plate that was coated overnight at 4° C. with 100 μL/well of the cell lysate (1:10 dilution of the lysate with PBS containing protease inhibitors, phosphatase inhibitors, and PMSF). […]
The amount of O-GlcNAcylated protein, as detected by the ELISA assay, was plotted for each concentration of test compound using standard curve fitting algorithms for sigmoidal dose response curves. The values for a four parameter logistic curve fit of the data were determined, with the inflection point of the curve being the potency value for the test compound.

Chain of O-GlcNAcase (Q8VIJ5 whole entry): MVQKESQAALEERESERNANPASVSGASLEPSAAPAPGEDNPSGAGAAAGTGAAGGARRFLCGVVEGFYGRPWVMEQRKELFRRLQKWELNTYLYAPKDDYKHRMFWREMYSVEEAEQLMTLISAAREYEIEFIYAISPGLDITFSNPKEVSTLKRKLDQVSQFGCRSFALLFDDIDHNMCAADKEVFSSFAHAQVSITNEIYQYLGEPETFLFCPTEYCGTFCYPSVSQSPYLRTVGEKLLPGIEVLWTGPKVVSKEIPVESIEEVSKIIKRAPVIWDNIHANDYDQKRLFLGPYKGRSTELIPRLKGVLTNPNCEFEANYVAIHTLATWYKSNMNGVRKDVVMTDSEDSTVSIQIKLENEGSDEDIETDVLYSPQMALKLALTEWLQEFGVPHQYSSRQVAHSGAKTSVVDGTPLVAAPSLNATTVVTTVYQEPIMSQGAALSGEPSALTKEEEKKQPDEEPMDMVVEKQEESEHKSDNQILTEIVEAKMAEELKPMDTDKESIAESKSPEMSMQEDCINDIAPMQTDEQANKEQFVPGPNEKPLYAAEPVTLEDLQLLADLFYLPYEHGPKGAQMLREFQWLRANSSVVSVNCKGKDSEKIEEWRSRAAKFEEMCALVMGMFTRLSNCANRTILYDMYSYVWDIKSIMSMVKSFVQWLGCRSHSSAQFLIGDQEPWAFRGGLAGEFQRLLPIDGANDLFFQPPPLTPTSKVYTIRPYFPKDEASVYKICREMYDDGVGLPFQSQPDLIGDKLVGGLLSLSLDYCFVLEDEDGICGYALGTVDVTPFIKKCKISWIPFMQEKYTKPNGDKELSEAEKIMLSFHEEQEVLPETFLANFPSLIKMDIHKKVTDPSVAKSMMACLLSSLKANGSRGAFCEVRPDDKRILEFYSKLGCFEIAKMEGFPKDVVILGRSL
Chain of human O-GlcNAcase (O60502 whole entry): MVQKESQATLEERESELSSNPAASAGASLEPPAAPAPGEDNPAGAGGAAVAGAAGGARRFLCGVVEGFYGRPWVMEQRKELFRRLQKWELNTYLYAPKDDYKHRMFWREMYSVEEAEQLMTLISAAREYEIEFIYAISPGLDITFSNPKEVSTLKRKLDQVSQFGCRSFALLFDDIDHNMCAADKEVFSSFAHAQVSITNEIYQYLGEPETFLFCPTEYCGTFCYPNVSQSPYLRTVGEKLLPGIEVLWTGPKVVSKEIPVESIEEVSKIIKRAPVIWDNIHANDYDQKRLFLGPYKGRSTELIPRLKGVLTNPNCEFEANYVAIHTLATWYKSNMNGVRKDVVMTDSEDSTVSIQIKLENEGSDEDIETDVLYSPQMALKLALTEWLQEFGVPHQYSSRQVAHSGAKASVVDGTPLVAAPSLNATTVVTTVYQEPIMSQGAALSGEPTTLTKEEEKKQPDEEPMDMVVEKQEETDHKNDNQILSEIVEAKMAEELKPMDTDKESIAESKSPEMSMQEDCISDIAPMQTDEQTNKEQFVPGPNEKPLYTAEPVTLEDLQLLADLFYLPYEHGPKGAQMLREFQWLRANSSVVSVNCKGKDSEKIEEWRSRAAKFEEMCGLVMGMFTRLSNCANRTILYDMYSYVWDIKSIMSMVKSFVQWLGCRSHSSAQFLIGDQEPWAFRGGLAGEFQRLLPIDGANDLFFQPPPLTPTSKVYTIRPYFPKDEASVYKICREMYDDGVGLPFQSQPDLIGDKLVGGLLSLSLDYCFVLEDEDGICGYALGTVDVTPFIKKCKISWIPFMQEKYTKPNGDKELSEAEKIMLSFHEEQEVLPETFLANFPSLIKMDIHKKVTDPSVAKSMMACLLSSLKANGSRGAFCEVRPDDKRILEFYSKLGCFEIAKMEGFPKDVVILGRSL

Row | SMILES | Papp at 3 h, 1 μM [1] [×10⁻⁶ cm/s] | Ki (human O-GlcNAcase) [µM] | EC50 (O-GlcNAcase) [µM]
1 | CNC1=N[C@@H]2[C@@H](F)[C@H](O)[C@@H]([C@H](C)O)O[C@@H]2S1 [Example 1, (3aR,5R,6R,7R,7aR)-7-fluoro-5-((S)-1-hydroxyethyl)-2-(methylamino)-5,6,7,7a-tetrahydro-3aH-pyrano[3,2-d]thiazol-6-ol] | 3.3 |  | 
2 | CCNC1=N[C@@H]2[C@@H](F)[C@H](O)[C@@H]([C@H](C)O)O[C@@H]2S1 [Example 3, (3aR,5R,6R,7R,7aR)-2-(ethylamino)-7-fluoro-5-((S)-1-hydroxyethyl)-5,6,7,7a-tetrahydro-3aH-pyrano[3,2-d]thiazol-6-ol] | 5.2 | 0.012 | 
3 | C[C@H](O)[C@H]1O[C@@H]2SC(N(C)C)=N[C@@H]2[C@@H](F)[C@@H]1O [Example 5, (3aR,5R,6R,7R,7aR)-2-(dimethylamino)-7-fluoro-5-((S)-1-hydroxyethyl)-5,6,7,7a-tetrahydro-3aH-pyrano[3,2-d]thiazol-6-ol] | 14 | 0.016 | 
4 | CCNC1=N[C@@H]2[C@@H](F)[C@H](O)[C@@H]([C@@H](O)C(F)(F)F)O[C@@H]2S1 [Example 7, (3aR,5S,6R,7R,7aR)-2-(ethylamino)-7-fluoro-5-((R)-2,2,2-trifluoro-1-hydroxyethyl)-5,6,7,7a-tetrahydro-3aH-pyrano[3,2-d]thiazol-6-ol] | 15 | 0.016 | 
5 | CNC1=N[C@@H]2[C@@H](F)[C@H](O)[C@@H]([C@@H](O)C(F)(F)F)O[C@@H]2S1 [Example 9, (3aR,5S,6R,7R,7aR)-7-fluoro-2-(methylamino)-5-((R)-2,2,2-trifluoro-1-hydroxyethyl)-5,6,7,7a-tetrahydro-3aH-pyrano[3,2-d]thiazol-6-ol] | 6.6 | 0.0035 | 0.074
6 | CN(C)C1=N[C@@H]2[C@@H](F)[C@H](O)[C@@H]([C@@H](O)C(F)(F)F)O[C@@H]2S1 [Example 11, (3aR,5S,6R,7R,7aR)-2-(dimethylamino)-7-fluoro-5-((R)-2,2,2-trifluoro-1-hydroxyethyl)-5,6,7,7a-tetrahydro-3aH-pyrano[3,2-d]thiazol-6-ol] | 23 | 0.0095 | 
7 | CCNC1=N[C@@H]2C[C@H](O)[C@@H]([C@H](C)O)O[C@@H]2S1 [Example 13, (3aR,5R,6S,7aR)-2-(ethylamino)-5-((S)-1-hydroxyethyl)-5,6,7,7a-tetrahydro-3aH-pyrano[3,2-d]thiazol-6-ol] | 2.3 | 0.026 | 
8 | CC[C@H]1O[C@@H]2SC(NC)=N[C@@H]2[C@@H](F)[C@@H]1O [Example 15, (3aR,5R,6R,7R,7aR)-5-ethyl-7-fluoro-2-(methylamino)-5,6,7,7a-tetrahydro-3aH-pyrano[3,2-d]thiazol-6-ol] | 34 | 0.156 | 
9 | CNC1=N[C@@H]2C[C@H](O)[C@@H]([C@@H](O)C(F)(F)F)O[C@@H]2S1 [Example 20, (3aR,5S,6S,7aR)-2-(methylamino)-5-((R)-2,2,2-trifluoro-1-hydroxyethyl)-5,6,7,7a-tetrahydro-3aH-pyrano[3,2-d]thiazol-6-ol] | 3.4 | 0.0035 | 0.05
10 | CNC1=N[C@@H]2C[C@H](O)[C@@H]([C@@](C)(O)C(F)(F)F)O[C@@H]2S1 [Example 29, (3aR,5S,6S,7aR)-2-(methylamino)-5-((R)-1,1,1-trifluoro-2-hydroxypropan-2-yl)-5,6,7,7a-tetrahydro-3aH-pyrano[3,2-d]thiazol-6-ol] |  | 0.492 | 
11 | O[C@H]1[C@H](F)[C@H]2N=C(N3CCC3)S[C@H]2O[C@@H]1[C@@H](O)C(F)(F)F [Example 32, (3aR,5S,6R,7R,7aR)-2-(azetidin-1-yl)-7-fluoro-5-((R)-2,2,2-trifluoro-1-hydroxyethyl)-5,6,7,7a-tetrahydro-3aH-pyrano[3,2-d]thiazol-6-ol] | 21 | 0.013 | 
12 | CNC1=N[C@@H]2[C@H](F)[C@H](O)[C@@H]([C@H](C)O)O[C@@H]2S1 [Example 34, (3aR,5R,6R,7S,7aR)-7-fluoro-5-((S)-1-hydroxyethyl)-2-(methylamino)-5,6,7,7a-tetrahydro-3aH-pyrano[3,2-d]thiazol-6-ol] | 1.9 |  | 
13 | CCNC1=N[C@@H]2[C@H](F)[C@H](O)[C@@H]([C@@H](C)O)O[C@@H]2S1 [Example 37, (3aR,5R,6R,7S,7aR)-2-(ethylamino)-7-fluoro-5-((R)-1-hydroxyethyl)-5,6,7,7a-tetrahydro-3aH-pyrano[3,2-d]thiazol-6-ol] | 2.1 | 0.266 | 
14 | CNC1=N[C@@H]2[C@H](F)[C@H](O)[C@@H]([C@@H](O)C(F)(F)F)O[C@@H]2S1 [Example 38, (3aR,5S,6R,7S,7aR)-7-fluoro-2-(methylamino)-5-((R)-2,2,2-trifluoro-1-hydroxyethyl)-5,6,7,7a-tetrahydro-3aH-pyrano[3,2-d]thiazol-6-ol] | 3.7 | 0.0007 | 0.0091
15 | CC[C@H]1O[C@@H]2SC(NC)=N[C@@H]2[C@H](F)[C@@H]1O [Example 42, (3aR,5R,6R,7S,7aR)-5-ethyl-7-fluoro-2-(methylamino)-5,6,7,7a-tetrahydro-3aH-pyrano[3,2-d]thiazol-6-ol] |  | 0.05 | 
16 | CNC1=N[C@@H]2[C@H](F)[C@H](O)[C@@H](C(C)(C)O)O[C@@H]2S1 [Example 43, (3aR,5S,6R,7S,7aR)-7-fluoro-5-(2-hydroxypropan-2-yl)-2-(methylamino)-5,6,7,7a-tetrahydro-3aH-pyrano[3,2-d]thiazol-6-ol] | 2.4 | 0.39 | 
